Experimental data from patent US20230024108A1, “ADENOSINE A2A RECEPTOR ANTAGONISTS” (Teon Therapeutics, Inc., priority 2019, published 2023).

Assays:
[1] = biological target: T1, human A2A AdoR (Homo sapiens, UniProt P29274); assay: Adenosine receptor binding assay, A2A ([3H]-CGS-21680); conditions: membranes of HEK-293 cells expressing human A2A AdoR; read-out: hA2A IC50
T1 construct: purchased PerkinElmer RBHA2AM400UA
Description: (§1) Membranes prepared from CHO-K1 cells stably expressing Human AiAdoR (ES-010-M400UA), HEK-293 cells stably expressing human A2A AdoR (RBHA2AM400UA), HEK-293 cells stably expressing human A2B AdoR (ES-013-M400UA) and CHO-K1 cells stably expressing Human A3 AdoR (ES-012-M400UA) were purchased from PerkinElmer (Waltham, Mass., USA) and stored at −80° C. until use. Binding assays are performed using the radioligands. The final concentrations are as follows: [3H]-DPCPX (PerkinElmer, NET974001MC) at 1 nM for A1AdoR; [^3H]-CGS-21680 (PerkinElmer, NET1021250UC) at 6 nM for A2AAdoR, [3H]-DPCPX (PerkinElmer, NET974001MC) at 8 nM for A2BAdoR; [^3H]-HEMADO (ARC, Cat: ART1456) at 1 nM for A3AdoR. Testing compounds are diluted with DMSO to make 8-point 4-fold serial dilution. Nonspecific binding (Low control: LC) and total binding (High control: HC) are determined in the presence or absence of saturated cold ligand. Specific binding is calculated by subtracting nonspecific binding from total binding. All assays are performed in a final volume of 200 μl containing 1 μl of the test compound in DMSO, 100 μl of membrane preparation, and 99 μl of the radioligand in assay buffer (A1AdoR: 25 mM HEPES pH 7.4, 5 mM MgCl2, 1 mM CaCl2), 100 mM NaCl; A2AAdoR: 50 mM Tris HCl pH 7.4, 10 mM MgCl2, 1 mM EDTA; A2BAdoR: 50 mM HEPES pH 7.0, 5 mM MgCl2, 1 mM EDTA; A3AdoR: 25 HEPES pH 7.4, 10 mM MgCl2, 1 mM CaCl2), 0.5% BSA). The incubation is performed at room temperature with shaking at 300 rpm for 1 hour for A1AdoR, A2BAdoR and A3AdoR and 2 hours for A2AAdoR. After the incubation, the assay mixture is filtered through 96 GF/C filter plates (Perkin Elmer #6005174) using Perkin Elmer Filtermate Harvester, and then washed four times with ice-cold washing buffer (A1AdoR: 25 mM HEPES pH 7.4, 5 mM MgCl2, 1 mM CaCl2), 100 mM NaCl; A2AAdoR: 50 mM Tris HCl pH 7.4, 154 mM NaCl; A2BAdoR: 50 mM HEPES pH 6.5, 5 mM MgCl2, 1 mM EDTA, 0.2% BSA; A3AdoR: 50 mM Tris HCl pH 7.4). The filters are dried for 1 hour at 50° C. and [^3H] trapped on filter counted for radioactivity in Perkin Elmer Microscint 20 cocktail (#6013329) using Perkin Elmer MicroBeta2 Reader. The results are expressed as a percent inhibition of the control radioligand specific binding calculated using the following equation: % Inhibition=(1−(Assay well-Average_LC)/(Average_HC−Average_LC))×100%. Data are analyzed and IC50 is calculated using GraphPad Prism 5 and the model “log(inhibitor) vs. response—Variable slope”. The binding affinity of the compounds is determined by using the Cheng and Prusoff equation Ki=IC50/(1+[radioligand]/Kd).

[2] = biological target: T2, A1AdoR (Homo sapiens, UniProt P30542); assay: Adenosine receptor binding assay, A1 ([3H]-DPCPX); conditions: ratio A1 vs A2A binding
T2 construct: purchased PerkinElmer ES-010-M400UA
T2 sequence (P30542 1-326): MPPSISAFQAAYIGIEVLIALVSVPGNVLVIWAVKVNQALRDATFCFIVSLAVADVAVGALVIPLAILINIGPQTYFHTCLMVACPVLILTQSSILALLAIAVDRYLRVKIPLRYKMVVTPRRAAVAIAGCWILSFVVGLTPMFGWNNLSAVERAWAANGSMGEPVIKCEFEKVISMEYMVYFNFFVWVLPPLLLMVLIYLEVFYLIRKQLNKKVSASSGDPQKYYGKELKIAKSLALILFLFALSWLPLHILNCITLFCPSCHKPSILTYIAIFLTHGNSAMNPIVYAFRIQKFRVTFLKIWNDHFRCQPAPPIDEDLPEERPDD
Description: as §1

T1 sequence (P29274 whole entry): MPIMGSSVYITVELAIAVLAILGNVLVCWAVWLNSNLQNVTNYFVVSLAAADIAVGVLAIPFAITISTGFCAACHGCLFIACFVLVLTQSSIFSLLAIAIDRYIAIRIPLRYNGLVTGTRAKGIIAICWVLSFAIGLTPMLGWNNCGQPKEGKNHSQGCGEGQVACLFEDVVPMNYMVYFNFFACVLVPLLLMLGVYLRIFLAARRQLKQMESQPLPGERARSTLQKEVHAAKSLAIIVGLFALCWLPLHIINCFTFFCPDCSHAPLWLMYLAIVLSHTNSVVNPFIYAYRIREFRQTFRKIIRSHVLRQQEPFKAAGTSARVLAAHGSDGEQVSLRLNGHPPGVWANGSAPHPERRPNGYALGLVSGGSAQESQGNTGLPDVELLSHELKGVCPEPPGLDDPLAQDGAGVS

Compound	IC50 [1]	A1/A2A Selectivity [2]
CC#Cc1nc2c3ncn(CCN4CCc5ncc(C6COC6)cc5C4)c3nc(N)n2n1	20 to 100 nM	b (greater than 100 but less than or equal to 1000)
Cc1c(C(=O)O)n(CCN2CCN(c3ccncc3)CC2)c2nc(N)n3nc(-c4ccccn4)nc3c12	20 to 100 nM	c (greater than 0 but less than or equal to 100)
CC#Cc1nc2c3ncn(CCN4CCN(c5ccc(OC(C)(C)C(=O)OC)cc5F)CC4)c3nc(N)n2n1	≤ 20 nM	a (greater than 1000)
CC#Cc1nc2c3ncn(CCN4CCN(c5ccc(OC(C)(C)C(=O)O)cc5)CC4)c3nc(N)n2n1 [2-(4-(4-(2-(5-amino-8-(prop-1-yn-1-yl)-3H-[1,2,4]triazolo[5,1-i]purin-3-yl)ethyl)piperazin-1-yl)phenoxy)-2-methylpropanoic acid]	20 to 100 nM	b (greater than 100 but less than or equal to 1000)
CC(C)(Oc1ccc(N2CCN(CCn3cnc4c3nc(N)n3nc(-c5ccccn5)nc43)CC2)c(F)c1)C(=O)O [2-(4-(4-(2-(5-amino-8-(pyridin-2-yl)-3H-[1,2,4]triazolo[5,1-i]purin-3-yl)ethyl)piperazin-1-yl)-3-fluorophenoxy)-2-methylpropanoic acid]	≤ 20 nM	b (greater than 100 but less than or equal to 1000)
NC(=O)c1c(Cl)c2c(nc(N)n3nc(-c4ccccn4)nc23)n1CCN1CCN(c2ccc(OCC(=O)O)cc2)CC1 [2-(4-(4-(2-(5-amino-8-carbamoyl-9-chloro-2-(pyridin-2-yl)-7H-pyrrolo[3,2-e][1,2,4]triazolo[1,5-c]pyrimidin-7-yl)ethyl)piperazin-1-yl)phenoxy)acetic acid]	≤ 20 nM	b (greater than 100 but less than or equal to 1000)
Nc1nc2c(ncn2CCN2CCc3ncc(C4COC4)cc3C2)c2nc(-c3ccccn3)nn12 [3-(2-(3-(oxetan-3-yl)-7,8-dihydro-1,6-naphthyridin-6(5H)-yl)ethyl)-8-(pyridin-2-yl)-3H-[1,2,4]triazolo[5,1-i]purin-5-amine]	20 to 100 nM	c (greater than 0 but less than or equal to 100)
Nc1nc2c(ncn2CCN2CCN(c3cc(-n4cccn4)ccc3F)CC2)c2nc(-c3ccccn3)nn12 [3-(2-(4-(2-fluoro-5-(1H-pyrazol-1-yl)phenyl)piperazin-1-yl)ethyl)-8-(pyridin-2-yl)-3H-[1,2,4]triazolo[5,1-i]purin-5-amine]	≤ 20 nM	b (greater than 100 but less than or equal to 1000)
Nc1nc2c(ncn2CCN2CCN(c3cc(-c4ncco4)ccc3F)CC2)c2nc(-c3ccccn3)nn12 [3-(2-(4-(2-fluoro-5-(oxazol-2-yl)phenyl)piperazin-1-yl)ethyl)-8-(pyridin-2-yl)-3H-[1,2,4]triazolo[5,1-i]purin-5-amine]	≤ 20 nM	b (greater than 100 but less than or equal to 1000)
CC#Cc1nc2c3ncn(CCN4CCN(c5cc6c(C)noc6cc5F)CC4)c3nc(N)n2n1 [3-(2-(4-(6-fluoro-3-methylbenzo[d]isoxazol-5-yl)piperazin-1-yl)ethyl)-8-(prop-1-yn-1-yl)-3H-[1,2,4]triazolo[5,1-i]purin-5-amine]	≤ 20 nM	a (greater than 1000)
Cc1c(C(N)=O)n(CCN2CCN(c3ccc(F)cc3F)CC2)c2nc(N)n3nc(-c4ccccn4)nc3c12 [5-amino-7-(2-(4-(2,4-difluorophenyl)piperazin-1-yl)ethyl)-9-methyl-2-(pyridin-2-yl)-7H-pyrrolo[3,2-e][1,2,4]triazolo[1,5-c]pyrimidine-8-carboxamide]	≤ 20 nM	b (greater than 100 but less than or equal to 1000)
Cc1c(C(=O)O)n(CCN2CCN(c3ccc(F)cc3F)CC2)c2nc(N)n3nc(-c4ccccn4)nc3c12 [5-amino-7-(2-(4-(2,4-difluorophenyl)piperazin-1-yl)ethyl)-9-methyl-2-(pyridin-2-yl)-7H-pyrrolo[3,2-e][1,2,4]triazolo[1,5-c]pyrimidine-8-carboxylic acid]	≤ 20 nM	b (greater than 100 but less than or equal to 1000)
Cc1c(C(=O)O)n(CCN2CCCN(c3cc(-c4ncco4)ccc3F)CC2)c2nc(N)n3nc(-c4ccccn4)nc3c12 [5-amino-7-(2-(4-(2-fluoro-5-(oxazol-2-yl)phenyl)-1,4-diazepan-1-yl)ethyl)-9-methyl-2-(pyridin-2-yl)-7H-pyrrolo[3,2-e][1,2,4]triazolo[1,5-c]pyrimidine-8-carboxylic acid]	20 to 100 nM	c (greater than 0 but less than or equal to 100)
CNC(=O)c1c(C)c2c(nc(N)n3nc(-c4ccccn4)nc23)n1CCN1CCCN(c2cc(-c3ncco3)ccc2F)CC1 [5-amino-7-(2-(4-(2-fluoro-5-(oxazol-2-yl)phenyl)-1,4-diazepan-1-yl)ethyl)-N,9-dimethyl-2-(pyridin-2-yl)-7H-pyrrolo[3,2-e][1,2,4]triazolo[1,5-c]pyrimidine-8-carboxamide]	≤ 20 nM	b (greater than 100 but less than or equal to 1000)

Now from value to compound, other results behind:

IC50 [1]	Compound	A1/A2A Selectivity [2]
≤ 20 nM	CC#Cc1nc2c3ncn(CCN4CCN(c5cc(-n6cccn6)ccc5F)CC4)c3nc(N)n2n1	a (greater than 1000)
≤ 20 nM	CC#Cc1nc2c3cc(C#N)n(CCN4CCN(c5ccc6onc(C)c6c5F)CC4)c3nc(N)n2n1	a (greater than 1000)
≤ 20 nM	Cc1noc2cc(F)c(N3CCN(CCn4c(C(=O)O)c(C)c5c4nc(N)n4nc(-c6ccccn6)nc54)CC3)cc12	b (greater than 100 but less than or equal to 1000)
≤ 20 nM	CNC(=O)c1c(Cl)c2c(nc(N)n3nc(-c4ccccn4)nc23)n1CCN1CCN(c2cc(-c3ncco3)ccc2F)CC1	a (greater than 1000)
≤ 20 nM	NC(=O)c1c(Cl)c2c(nc(N)n3nc(-c4ccccn4)nc23)n1CCN1CCN(c2ccc(F)cc2F)CC1	c (greater than 0 but less than or equal to 100)
≤ 20 nM	Cc1noc2cc(F)c(N3CCCN(CCn4c(C(N)=O)c(Cl)c5c4nc(N)n4nc(-c6ccccn6)nc54)CC3)cc12	b (greater than 100 but less than or equal to 1000)
≤ 20 nM	Nc1nc2c(c(Cl)c(C(=O)NC3CC3)n2CCN2CCN(c3cc(-c4ncco4)ccc3F)CC2)c2nc(-c3ccccn3)nn12	a (greater than 1000)
≤ 20 nM	CC#Cc1nc2c3ncn(CCN4CCc5ncc(-c6nccs6)cc5C4)c3nc(N)n2n1	c (greater than 0 but less than or equal to 100)
≤ 20 nM	Nc1nc2c(ncn2CCN2CCc3ncc(-c4nccs4)cc3C2)c2nc(-c3ccccn3)nn12	c (greater than 0 but less than or equal to 100)
≤ 20 nM	2-(4-(4-(2-(5-amino-8-(methoxycarbonyl)-9-methyl-2-(pyridin-2-yl)-7H-pyrrolo[3,2-e][1,2,4]triazolo[1,5-c]pyrimidin-7-yl)ethyl)piperazin-1-yl)phenoxy)acetic acid	b (greater than 100 but less than or equal to 1000)
